Where “and” joins values, the source holds several entries; their conditions need not be identical. Equal entries are not always repeated. Inconclusive results and toxic doses are left out. The calls were made as follows: active = survival T/C of 150% or more; inactive = T/C below 125% in these data.
Test system: P388 leukemia ip, CD2F1 mice, survival T/C
Experiment: NCI In Vivo Anticancer Drug Screen. Data for tumor model P388 Leukemia (intraperitoneal) in CD2F1 (CDF1) mice
Conditions: endpoint: median survival time, higher = longer survival
In short: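 Mice carrying the transplanted tumor received test compound or vehicle. Survival was recorded in each group, and the value is the treated-group measurement divided by that of the vehicle-treated control group.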

[1] = dose: 50.0 mg/kg/injection, schedule: Q01DX005 (ip), vehicle: saline with Tween-80
[2] = dose: 100.0 mg/kg/injection, schedule: Q01DX005 (ip), vehicle: saline with Tween-80
[3] = dose: 200.0 mg/kg/injection, schedule: Q01DX005 (ip), vehicle: saline with Tween-80
[4] = dose: 100.0 mg/kg/injection, schedule: Q04DX003 (ip), vehicle: saline with Tween-80
[5] = dose: 200.0 mg/kg/injection, schedule: Q04DX003 (ip), vehicle: saline with Tween-80
[6] = dose: 400.0 mg/kg/injection, schedule: Q04DX003 (ip), vehicle: saline with Tween-80
[7] = dose: 50.0 mg/kg/injection, schedule: Q01DX009 (ip), vehicle: saline with Tween-80
[8] = dose: 6.25 mg/kg/injection, schedule: Q01DX009 (ip), vehicle: Klucel (hydroxypropylcellulose) (HPC)
[9] = dose: 12.5 mg/kg/injection, schedule: Q01DX009 (ip), vehicle: Klucel (hydroxypropylcellulose) (HPC)
[10] = dose: 50.0 mg/kg/injection, schedule: Q01DX009 (ip), vehicle: saline
[11] = dose: 100.0 mg/kg/injection, schedule: Q01DX009 (ip), vehicle: saline
[12] = dose: 200.0 mg/kg/injection, schedule: Q01DX009 (ip), vehicle: saline

Measured: T/C

Oc1ccc2ccc3cccc4ccc1c2c34
inactive: [1] 100 % of control | [2] 100 % of control | [3] 100 % of control

CC(C)C1=CC2=C[C@H](O)[C@H]3C(C)(C)CCC[C@]3(C)C2=C(O)C1=O
inactive: dose: 1.25 mg/kg/injection, schedule: Q01DX009 (ip), vehicle: saline with Tween-80 109 % of control and 91 % of control | dose: 1.25 mg/kg/injection, schedule: Q01DX009 (ip), vehicle: suspension in saline 103 % of control | dose: 1.75 mg/kg/injection, schedule: Q01DX009 (ip), vehicle: saline with Tween-80 108 % of control | dose: 2.5 mg/kg/injection, schedule: Q01DX009 (ip), vehicle: saline with Tween-80 100 % of control and 111 % of control and 123 % of control | dose: 2.5 mg/kg/injection, schedule: Q01DX009 (ip), vehicle: suspension in saline 109 % of control | dose: 5.0 mg/kg/injection, schedule: Q01DX009 (ip), vehicle: saline with Tween-80 104 % of control and 108 % of control and 111 % of control | dose: 5.0 mg/kg/injection, schedule: Q01DX009 (ip), vehicle: suspension in saline 100 % of control | dose: 10.0 mg/kg/injection, schedule: Q01DX009 (ip), vehicle: saline with Tween-80 107 % of control and 109 % of control and 113 % of control | dose: 10.0 mg/kg/injection, schedule: Q01DX009 (ip), vehicle: suspension in saline 113 % of control | dose: 20.0 mg/kg/injection, schedule: Q01DX009 (ip), vehicle: suspension in saline 109 % of control

CO/C=C1\CC(=O)N(c2ccccc2)C1=O
inactive: dose: 100.0 mg/kg/injection, schedule: Q04DX003 (ip), vehicle: saline 106 % of control | dose: 200.0 mg/kg/injection, schedule: Q04DX003 (ip), vehicle: saline 100 % of control | dose: 400.0 mg/kg/injection, schedule: Q04DX003 (ip), vehicle: saline 97 % of control

c1ccc(Sc2cccc3ccccc23)cc1
inactive: [4] 95 % of control | [5] 109 % of control | [6] 104 % of control

CCN(CC)[P+](C1=C(Cl)C(=O)C(Cl)=C(Cl)C1=O)(N(CC)CC)N(CC)CC
inactive: dose: 12.5 mg/kg/injection, schedule: Q01DX009 (ip), vehicle: saline with Tween-80 105 % of control | dose: 25.0 mg/kg/injection, schedule: Q01DX009 (ip), vehicle: saline with Tween-80 93 % of control | [7] 103 % of control

Cc1c(C)[n+](=O)c2ccc(/C=N/N3CCOC3=O)cc2n1[O-]
inactive: [8] 106 % of control | [9] 97 % of control | dose: 25.0 mg/kg/injection, schedule: Q01DX009 (ip), vehicle: Klucel (hydroxypropylcellulose) (HPC) 102 % of control | dose: 100.0 mg/kg/injection, schedule: Q01DX009 (ip), vehicle: Klucel (hydroxypropylcellulose) (HPC) 90 % of control

CCOC(=O)Nc1c(CC(C)O)n[nH]c1C (centres undefined)
inactive: [1] 110 % of control | [2] 100 % of control | [3] 96 % of control

CCCCCCCCCCCCCC#CC(=O)OC
inactive: [10] 104 % of control | [11] 106 % of control | [12] 106 % of control

CC(C)C(C)C(O)C(O)C(C)C1CCC2C3COC(=O)C4CC(O)C(O)CC4(C)C3CCC12C (centres undefined)
inactive: dose: 0.75 mg/kg/injection, schedule: Q01DX009 (ip), vehicle: saline with Tween-80 106 % of control | dose: 1.05 mg/kg/injection, schedule: Q01DX009 (ip), vehicle: saline with Tween-80 98 % of control | dose: 1.5 mg/kg/injection, schedule: Q01DX009 (ip), vehicle: saline with Tween-80 112 % of control | dose: 2.1 mg/kg/injection, schedule: Q01DX009 (ip), vehicle: saline with Tween-80 103 % of control | dose: 3.0 mg/kg/injection, schedule: Q01DX009 (ip), vehicle: saline with Tween-80 99 % of control | dose: 4.2 mg/kg/injection, schedule: Q01DX009 (ip), vehicle: saline with Tween-80 100 % of control | dose: 6.0 mg/kg/injection, schedule: Q01DX009 (ip), vehicle: saline with Tween-80 103 % of control

COc1ccc(C(=O)NCc2cccnc2)cc1C(=O)NCc1cccnc1
inactive: [1] 94 % of control | [2] 103 % of control | [3] 99 % of control

O=C(Nc1ccc(N=C=S)cc1Cl)c1ccc2ccccc2c1O
inactive: dose: 100.0 mg/kg/injection, schedule: Q04DX003 (ip), vehicle: Klucel (hydroxypropylcellulose) (HPC) 101 % of control and 105 % of control | dose: 200.0 mg/kg/injection, schedule: Q04DX003 (ip), vehicle: Klucel (hydroxypropylcellulose) (HPC) 100 % of control and 106 % of control | dose: 400.0 mg/kg/injection, schedule: Q04DX003 (ip), vehicle: Klucel (hydroxypropylcellulose) (HPC) 110 % of control and 123 % of control

CCN(CC)CCCC(C)Nc1cc(/C=C/c2ccc(Cl)cc2)nc2cc(N(C)C)ccc12 (centres undefined)
inactive: dose: 3.12 mg/kg/injection, schedule: Q01DX009 (ip), vehicle: Klucel (hydroxypropylcellulose) (HPC) 107 % of control | [8] 110 % of control | [9] 98 % of control and 102 % of control

CC(C)(C)N1COCCOC1
inactive: dose: 100.0 mg/kg/injection, schedule: Q01DX009 (ip), vehicle: saline with Tween-80 118 % of control

CN1CCC2(CC1)C(C#N)C(=O)NC(=O)C2C#N (centres undefined)
inactive: [1] 105 % of control | [2] 100 % of control | [3] 100 % of control

COc1cc([C@@H]2c3cc4c(cc3[C@H](O)[C@H]3COC[C@@H]23)OCO4)cc(OC)c1OC
inactive: [1] 103 % of control | [2] 108 % of control | [3] 103 % of control

C[Si](C)(C)CN(Cc1ccccc1)C(=O)c1ccccc1[N+](=O)[O-]
inactive: [1] 105 % of control | [2] 98 % of control | [3] 103 % of control

Cc1nc2ccccc2c(=O)n1/N=C/c1ccccc1Cl
inactive: [1] 100 % of control | [2] 99 % of control | [3] 100 % of control

CCOC(=O)CC1(C)NCCS1 (centres undefined)
inactive: [10] 96 % of control | [11] 99 % of control | [12] 96 % of control

CN1CCC(=C2c3ccccc3Oc3ncccc32)CC1
inactive: dose: 12.5 mg/kg/injection, schedule: Q01DX009 (ip), vehicle: saline 102 % of control | dose: 25.0 mg/kg/injection, schedule: Q01DX009 (ip), vehicle: saline 111 % of control | [7] 102 % of control | [10] 99 % of control

c1nc(SC2CCCC2)c2[nH]cnc2n1
inactive: [4] 118 % of control | [5] 104 % of control | [6] 118 % of control

CC1(C)SC=C2C1=CSC2(C)C
inactive: [1] 101 % of control | [2] 96 % of control | [3] 95 % of control

— PubChem BioAssay AID330 (DTP/NCI, 2004)
